Consider four substances from patent publication US11827628B2, “Compositions and methods for inhibition of the JAK pathway” (Rigel Pharmaceuticals, Inc., priority 2005, dated 2023).

Assay [1] concerns IL-4 stimulated expression of CD23 in human Ramos B cells (JAK-1 and JAK-3). The assay is described as follows: Assay for Ramos B-Cell Line Stimulated with IL-4 (CD23 upregulation, FACS). The class given is cell-based. As to conditions: Ramos B cells stimulated with IL-4, CD23 expression by FACS; read-out: IC50, Example 41. In short, it runs like this:
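Log-phase Ramos cells, 1 h compound pre-incubation at 37 °C; IL-4 50 units/mL final, 20-24 h; CD23-PE stain, FACS; IC50.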

Assay [2] deals with up-regulation of ICAM-1 (CD54) by IFNγ in U937 human monocytic cells. In words: U937 IFNγ ICAM1 FACS Assay. It counts as cell-based. As to conditions: U937 cells stimulated with IFNγ; ICAM-1 expression by FACS; read-out: IC50, Example 44. Summed up:
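Readout was the geometric-mean APC anti-ICAM-1 signal by FACS on live U937 monocytic cells, with % live cells also recorded. Cells were exposed to compounds (8 points, 3-fold dilutions, duplicates) for 30 min at 37 °C before 18–24 h of IFNγ stimulation. EC50 values were computed from the dose curve.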

In general, IC50 refers to the concentration needed to halve the response being measured. For “N2-(3-Aminosulphonylphenyl)-5-fluoro-N4-[4-(3-pyridinylmethyl)benzo[1,4]oxazin-7-yl]-2,4-pyrimidinediamine [VII-56]”, the IC50 came out at 185 nM in assay [1] and 1.93 µM in assay [2].

For “N2-[3-Aminosulfonyl-4-(4-methylpiperazine-1-yl)phenyl]-N4-(3-cyanomethylene-1H-indol-6-yl)-5-fluoro-2,4-pyrimidinediamine [IX-17]”, the concentration for half-maximal inhibition (IC50) was found to be 108 nM in assay [1] and 1.98 µM in assay [2].

Turning to “N2-[3-Aminosulfonyl-4-(4-methylpiperazine-1-yl)phenyl]-N4-(3-cyanomethylene-1H-indol-7-yl)-5-fluoro-2,4-pyrimidinediamine [IX-18]”, the IC50 turned out to be 168 nM in assay [1] and 6.66 µM in assay [2].

For the substance “N4-(3-Chloro-4-cyanomethyleneoxyphenyl)-5-fluoro-N2-(5-methyl-2H-1,1-dioxide-1,2,4-benzothiadiazin-7-yl)-2,4-pyrimidinediamine [VIII-2]”, the IC50 amounted to 178 nM in assay [1] and 8.55 µM in assay [2].
